Read-outs that look alike come from different tables or passages of the source.
Tests used:
[1] = system: adherent cells or suspension cells; experiment: Hoechst 33342 nuclear staining (fraction of apoptotic nuclei); type: cell-based; set-up: key: 0 relating to no activity; 1 relating to weak activity comprising less than 70% of the cells; score 2 relating to strong activity comprising more than 70% of the cells
Jily = experiment: MTS proliferation assay, Jily; type: cell-based; conditions: 72 h incubation, read-out: MTS proliferation assay IC 50 Jily
How it was run: (§1)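 RPMI-1640 + 5% or 10% FCS; seeded 24 h pre-dose; cpd final 10/3/1/0.3 μM, max 5% DMSO in added volume; 72 h, 37° C, 7.5% CO2; MTS 3 h; A492.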

HeLa = experiment: MTS proliferation assay, HeLa; type: cell-based, human; conditions: 72 h incubation, read-out: MTS proliferation assay IC 50 HeLa
How it was run: (§2)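 Seed cells (1.5*10^3-10^4/well) 24 h ahead; add compound, final 10/3/1/0.3 μM; incubate 72 h, 37 °C, 7.5% CO2; MTS 3 h; read A492.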

HT1080 = experiment: MTS proliferation assay, HT1080; type: cell-based, human; conditions: HT1080, 72 h incubation, read-out: MTS proliferation assay IC 50 HT1080
How it was run: as §2

Jurkat = experiment: MTS proliferation assay, Jurkat; type: cell-based, human; conditions: 72 h incubation, read-out: MTS proliferation assay IC 50 Jurkat
How it was run: as §2

MRC5 = experiment: MTS proliferation assay, MRC5; type: cell-based; conditions: MRC5, 72 h incubation, read-out: MTS proliferation assay IC 50 MRC5
How it was run: as §1

| IC50 (HeLa) [nM] | Structure (SMILES) | Hoechst 33342 nuclear staining score ([1]; H460, conc 0.01 μm) | Hoechst 33342 nuclear staining score ([1]; H460, conc 0.1 μm) | Hoechst 33342 nuclear staining score ([1]; H460, conc 1 μm) | Hoechst 33342 nuclear staining score ([1]; HeLa, conc 0.01 μm) | Hoechst 33342 nuclear staining score ([1]; HeLa, conc 0.1 μm) | Hoechst 33342 nuclear staining score ([1]; HeLa, conc 1 μm) | Hoechst 33342 nuclear staining score ([1]; Jily, conc 0.01 μm) | Hoechst 33342 nuclear staining score ([1]; Jily, conc 0.1 μm) | Hoechst 33342 nuclear staining score ([1]; Jily, conc 1 μm) | Hoechst 33342 nuclear staining score ([1]; Jurkat, conc 0.01 μm) | Hoechst 33342 nuclear staining score ([1]; Jurkat, conc 0.1 μm) | Hoechst 33342 nuclear staining score ([1]; Jurkat, conc 1 μm) | Hoechst 33342 nuclear staining score ([1]; MRC5, conc 0.01 μm) | Hoechst 33342 nuclear staining score ([1]; MRC5, conc 0.1 μm) | Hoechst 33342 nuclear staining score ([1]; MRC5, conc 1 μm) | Hoechst 33342 nuclear staining score ([1]; PBLs, conc 0.01 μm) | Hoechst 33342 nuclear staining score ([1]; PBLs, conc 0.1 μm) | Hoechst 33342 nuclear staining score ([1]; PBLs, conc 1 μm) | IC50 (Jily) [nM] | other results |
| --- | --- | --- | --- | --- | --- | --- | --- | --- | --- | --- | --- | --- | --- | --- | --- | --- | --- | --- | --- | --- | --- |
| 10 to 100 | N#CCCNc1nonc1-c1nc2ccccc2n1COc1ccc(Br)cc1 [Example 94] | 0 | 2 (score 2 relating to strong activity comprising more than 70% of the cells) | 2 (score 2 relating to strong activity comprising more than 70% of the cells) | 0 | 1 (1 relating to weak activity comprising less than 70% of the cells) | 2 (score 2 relating to strong activity comprising more than 70% of the cells) | 0 | 2 (score 2 relating to strong activity comprising more than 70% of the cells) | 2 (score 2 relating to strong activity comprising more than 70% of the cells) | 0 | 2 (score 2 relating to strong activity comprising more than 70% of the cells) | 2 (score 2 relating to strong activity comprising more than 70% of the cells) | 0 | 0 | 2 (score 2 relating to strong activity comprising more than 70% of the cells) | 0 | 0 | 0 | 10 to 100 | IC50 (HT1080): 10 to 100 nM; IC50 (Jurkat): 10 to 100 nM; IC50 (MRC5): 100 to 1000 nM |
| 10 to 100 | Nc1ccc(C(=O)Cn2c(-c3nonc3N)nc3ccccc32)cc1 [Example 50] | 1 (1 relating to weak activity comprising less than 70% of the cells) | 2 (score 2 relating to strong activity comprising more than 70% of the cells) | 2 (score 2 relating to strong activity comprising more than 70% of the cells) | 0 | 2 (score 2 relating to strong activity comprising more than 70% of the cells) | 2 (score 2 relating to strong activity comprising more than 70% of the cells) | 2 (score 2 relating to strong activity comprising more than 70% of the cells) | 2 (score 2 relating to strong activity comprising more than 70% of the cells) | 2 (score 2 relating to strong activity comprising more than 70% of the cells) | 2 (score 2 relating to strong activity comprising more than 70% of the cells) | 2 (score 2 relating to strong activity comprising more than 70% of the cells) | 2 (score 2 relating to strong activity comprising more than 70% of the cells) | 0 | 2 (score 2 relating to strong activity comprising more than 70% of the cells) | 2 (score 2 relating to strong activity comprising more than 70% of the cells) | 0 | 0 | 0 | 10 to 100 | IC50 (HT1080): 10 to 100 nM; IC50 (Jurkat): 10 to 100 nM; IC50 (MRC5): 10 to 100 nM |
| 100 to 1000 | Nc1nonc1-c1nc2ccccc2n1COc1ccc(C(F)(F)F)cc1 [Example 91] | – | – | – | 0 | 0 | 0 | 0 | 0 | 2 (score 2 relating to strong activity comprising more than 70% of the cells) | 0 | 0 | 2 (score 2 relating to strong activity comprising more than 70% of the cells) | 0 | 0 | 0 | 0 | 0 | 0 | 100 to 1000 | IC50 (HT1080): 100 to 1000 nM; IC50 (Jurkat): 100 to 1000 nM; IC50 (MRC5): 100 to 1000 nM |
| 10 to 100 | Nc1nonc1-c1nc2ccccc2n1COc1ccc(Br)cc1 [Example 89] | 0 | 2 (score 2 relating to strong activity comprising more than 70% of the cells) | 2 (score 2 relating to strong activity comprising more than 70% of the cells) | 0 | 2 (score 2 relating to strong activity comprising more than 70% of the cells) | 2 (score 2 relating to strong activity comprising more than 70% of the cells) | 0 | 2 (score 2 relating to strong activity comprising more than 70% of the cells) | 2 (score 2 relating to strong activity comprising more than 70% of the cells) | 0 | 2 (score 2 relating to strong activity comprising more than 70% of the cells) | 2 (score 2 relating to strong activity comprising more than 70% of the cells) | 0 | 2 (score 2 relating to strong activity comprising more than 70% of the cells) | 2 (score 2 relating to strong activity comprising more than 70% of the cells) | 0 | 0 | 0 | 10 to 100 | IC50 (HT1080): 10 to 100 nM; IC50 (Jurkat): 10 to 100 nM; IC50 (MRC5): 100 to 1000 nM |
| – | Nc1ccc(C(=O)Cn2c(-c3nonc3NCCC(=O)O)nc3ccccc32)cc1 [Example 13, 4-[1-(4-Aminophenacyl)-1H-benzimidazol-2-yl]-furazan-3-yl-N-(2-carboxyethyl)-amine] | 0 | 0 | 2 (score 2 relating to strong activity comprising more than 70% of the cells) | 0 | 0 | 2 (score 2 relating to strong activity comprising more than 70% of the cells) | 0 | 0 | 2 (score 2 relating to strong activity comprising more than 70% of the cells) | 0 | 0 | 2 (score 2 relating to strong activity comprising more than 70% of the cells) | 0 | 0 | 2 (score 2 relating to strong activity comprising more than 70% of the cells) | 0 | 0 | 0 | 100 to 1000 | IC50 (HeLa; Homo sapiens): 100 to 1000 nM; IC50 (HT1080; Homo sapiens, HT-1080): 100 to 1000 nM; IC50 (Jurkat; Homo sapiens): 100 to 1000 nM; IC50 (MRC5; Homo sapiens): 100 to 1000 nM |
| 100 to 1000 | Nc1nonc1-c1nc2ccccc2n1CC(=O)c1ccccn1 [Example 59] | 0 | 0 | 2 (score 2 relating to strong activity comprising more than 70% of the cells) | 0 | 0 | 2 (score 2 relating to strong activity comprising more than 70% of the cells) | 0 | 0 | 2 (score 2 relating to strong activity comprising more than 70% of the cells) | 0 | 0 | 2 (score 2 relating to strong activity comprising more than 70% of the cells) | 0 | 0 | 2 (score 2 relating to strong activity comprising more than 70% of the cells) | 0 | 0 | 0 | 100 to 1000 | IC50 (HT1080): 100 to 1000 nM; IC50 (Jurkat): 100 to 1000 nM; IC50 (MRC5): 100 to 1000 nM |

Reference: patent publication USRE42890E1, “Furazanobenzimidazoles” (Basilea Pharmaceutica AG, priority 2003, dated 2011)
